Experimental data published in patent US20260198495A1, “BINARY INSECTICIDE COMPOSITION AND USE THEREOF” (SHENYANG SINOCHEM AGROCHEMICALS R & D CO., LTD., priority 2022, published 2026).
Converted amounts (≈) assume the structure as drawn.

Assays:
Format in all cases: in vivo
[1] = test system: 3rd-instar larvae of Chilo suppressalis (Walker); assay: Joint toxicity of I-72 + chlorantraniliprole, Example 57, Table 57; conditions: A = compound I-72, B = chlorantraniliprole, rice stem dipping, 72 hours, read-out: LC50
Method: Test target: 3rd-instar larvae of Chilo suppressalis (Walker).
(§1) Preparation of the pesticide solution: according to different test requirements, the test samples were accurately weighed respectively with an electronic analytical balance. The technical pesticides were dissolved in acetone, and then diluted with 0.1% Tween 80 water into a series of pesticide solutions with a certain concentration gradient according to the experimental design dosage.
(§2) Experimental method: first, tender rice stems were selected and dipped in the prepared pesticide solution for 10 s in the order from low dosage to high dosage according to the experimental design. After natural air-drying in the shade, they were placed in a 9-cm-diameter Petri dish with filter paper, and uniform and healthy test insects were introduced, with 10 insects for each treatment and 3 replicates for each treatment. In addition, a blank control (CK) was set up.
(§3) The treated test materials were placed in an observation room, and the temperature, humidity and illumination of the observation room could be adjusted as needed. The number of dead and live insects was investigated 72 hours later. […] Then, the co-toxicity coefficient of each ratio was calculated using the Sun Y-P method to evaluate the mixing effect, as in Example 1.

[2] = test system: Bemisia tabaci (Gennadius) nymphs; assay: Joint toxicity of I-72 + pyrifluquinazon, Example 77, Table 77; conditions: Bemisia tabaci; A = compound I-72, B = pyrifluquinazon; cotton leaf-disk spraying; 96 hours; read-out: LC50
Method: Test target: Bemisia tabaci (Gennadius) nymphs, a sensitive strain reared indoors.
as §1
Experimental method: first, cotton leaves with neat and consistent Bemisia tabaci (Gennadius) nymphs were selected and made into leaf disks, with about 20 insects on each leaf disk. Then, they were evenly sprayed with the pesticide solution in the order from low dosage to high dosage according to the experimental design, with 1.5 mL for each leaf and 3 replicates for each treatment. In addition, a blank control was set up.
as §3, with “96” for “72”, “effect (the same” for “effect,”, “1).” for “1.”

Aphis craccivora nymphs = assay: Synergism screening (Bliss) of I-72 + pyrethroid insecticides, Example 38, Table 38; conditions: Aphis craccivora, single pesticide, broad bean seedling spraying, 48 hours, read-out: Measured mortality rate (%)
Method: Test target: Aphis craccivora nymphs, a sensitive strain reared indoors.
as §1
Experimental method: first, broad bean seedlings with uniform and consistent Aphis craccivora were selected, with about 30-40 insects on each seedling. Then, they were evenly sprayed with the pesticide solution in the order from low dosage to high dosage according to the experimental design, with 1.5 mL of the solution for each leaf and 3 replicates for each treatment. In addition, a blank control (CK) was set up.
The treated test materials were placed in an observation room, and the temperature, humidity and illumination of the observation room could be adjusted as needed. The number of dead and alive insects was investigated 48 hours later, and the corrected mortality rate was calculated using the Abbott's formula.
The synergism of the mixture was evaluated by adopting the Bliss method, as in Example 5.

[3] = test system: Thrips flavus Schrank nymphs; assay: Joint toxicity of I-72 + tolfenpyrad, Example 62, Table 62; conditions: A = compound I72, B = tolfenpyrad, eggplant seedling spraying, 48 hours, read-out: LC50
Method: Test target: Thrips flavus Schrank nymphs.
as §1
Experimental method: first, eggplant seedlings with Thrips flavus Schrank were selected, and the base number was counted. Then, uniform spraying was performed with the pesticide solution in the order from low to high doses according to the experimental design, with 2 mL for each seedling and 3 replicates for each treatment. In addition, a blank control was set up.
as §3, with “48” for “72”, “effect (the same” for “effect,”, “1).” for “1.”

[4] = test system: 2nd-instar larvae of Spodoptera exigua Hübner; assay: whole plant or invertebrate; conditions: Spodoptera exigua, foliar; A = compound I-72, B = tetrachlorantraniliprole; cabbage leaf dipping; 72 hours; read-out: LC50
Method: Test target: 2nd-instar larvae of Spodoptera exigua Hübner.
as §1
as §2, with “cabbage leaves” for “tender rice stems”, “control” for “control (CK)”
The treated test materials were placed in an observation room, and the temperature, humidity and illumination of the observation room could be adjusted as needed. The number of dead and live insects was investigated 72 hours later.

adult Phyllotreta spp. = assay: Joint toxicity of I-72 + organophosphorus insecticides, cabbage seedling spraying, Example 19, Table 19; conditions: adults, cabbage seedling spraying, 72 h; A = compound I-72, B = acephate; read-out: LC50
Method: Test target: adult Phyllotreta spp., a sensitive strain reared indoors.
as §1
Experimental method: first, fresh cabbage seedlings cultivated in the greenhouse were selected and evenly sprayed with the pesticide solution in the order from low dosage to high dosage according to the experimental design. After natural air-drying in the shade, they were covered with a glass cover, and uniform and healthy test insects were introduced, with 10 insects for each treatment and 3 replicates for each treatment. In addition, a blank control was set up.
The treated test materials were placed in an observation room, and the temperature, humidity and illumination of the observation room could be adjusted as needed. The number of dead and live insects was investigated 72 hours later. The corrected mortality rate was calculated using the Abbott's formula, and statistical analysis was performed with the DPS data processing software to obtain the toxicity regression equation, LC50 value and 95% confidence limit of each single test pesticide and each mixture of different ratios. Then, the co-toxicity coefficient of each ratio was calculated using the Sun Y-P method to evaluate the mixing effect (the same as in Example 1).

## CN(C(=O)c1ccc2c(c1)OC(F)(F)O2)c1cccc(C(=O)Nc2c(Br)cc(C(F)(C(F)(F)F)C(F)(F)F)cc2OC(F)F)c1F [Compound I-72]
[1]
  LC50: 1.05 µg/mL
[2]
  LC50: 10.8 µg/mL
Aphis craccivora nymphs; concentration 0.1 mg/L
  mortality at 0.1 µg/mL: 11.9%
Aphis craccivora nymphs; concentration 3 mg/L
  mortality at 3 µg/mL: 60.6%
[3]
  LC50: 2.02 µg/mL
[4]
  LC50: 0.252 µg/mL (≈ 0.339 µM)
Adult Phyllotreta spp.
  LC50: 3.01 µg/mL
